Results: patent US12157730B2, “Heteroaryl derivative, method for producing same, and pharmaceutical composition comprising same as effective component” (VORONOI INC., priority 2019, dated 2024)

Target: T1, Ba/F3 cell EGFR Exon20 ins NPH (Homo sapiens, UniProt P00533, INS773NPH)
T1 construct: expressed in transfected cells; host or cells: Ba/F3
Experiment: Ba/F3 cell proliferation suppression, EGFR Exon20 ins NPH
Format: cell-based
Conditions: GI50 class; Ba/F3 cell line with NPH inserted at Exon20 of EGFR; 72 hours
Outline: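 Seed 3000–5000 cells/well; after 24 h add compound (12 conc., 0.3 nM–50 um final); incubate 72 h; add CellTiter-Glo, 10 min room temperature; read luminescence; GI50 from % growth vs control, triplicate.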

Row | SMILES | Ba/F3 (NPH) Activity
1 | C=CC(=O)Nc1cc(Nc2cc(N3OCC[C@@H]3c3cccc4ccccc34)ncn2)c(OC)cc1N1CCN(CC)CC1 [compound 444, N-(2-(4-ethylpiperazine-1-yl)-4-methoxy-5-((6-((R)-3-(naphthalene-1-yl)isoxazolidine-2-yl)pyrimidine-4-yl)amino)phenyl)acrylamide] | B (50 nM ≤ GI50 < 500 nM)
2 | C=CC(=O)Nc1cc(Nc2cc(N3OCC[C@@H]3c3cc(F)cc(F)c3)ncn2)c(OC)cc1N1C[C@H]2C[C@@H]1CO2 [compound 436, N-(2-((1R,4R)-2-oxa-5-azabicyclo[2.2.1]heptane-5-yl)-5-((6-((R)-3-(3,5-difluorophenyl)isoxazolidine-2-yl)pyrimidine-4-yl)amino)-4-methoxyphenyl) acrylamide] | B (50 nM ≤ GI50 < 500 nM)
3 | C=CC(=O)Nc1cc(Nc2cc(N3OCC[C@@H]3c3cc(F)cc(F)c3)ncn2)c(C)cc1N1CCC(N2CCN(C3CC3)CC2)CC1 [compound 534, N-(2-(4-(4-cyclopropylpiperazine-1-yl)piperidine-1-yl)-5-((6-((R)-3-(3,5-difluorophenyl)isoxazolidine-2-yl)pyrimidine-4-yl)amino)-4-methylphenyl) acrylamide] | A (GI50 < 50 nM)
4 | C=CC(=O)Nc1cc(Nc2cc(N3OCC[C@@H]3c3ccc4ccccc4c3)ncn2)c(OC)cc1N1CCC(N2CCN(C3CC3)CC2)CC1 [Example 151, N-(2-(4-(4-cyclopropylpiperazine-1-yl)piperidine-1-yl)-4-methoxy-5-((6-((R)-3-(naphthalene-2-yl)isoxazolidine-2-yl)pyrimidine-4-yl)amino)phenyl)acrylamide] | B (50 nM ≤ GI50 < 500 nM)
5 | C=CC(=O)Nc1cc(Nc2cc(N3OCC[C@@H]3c3ccc(F)c(F)c3F)ncn2)c(OC)cc1N1CC[C@@H](N(C)C)C1 [compound 622, N-(2-((R)-3-(dimethylamino)pyrolidine-1-yl)-4-methoxy-5-((6-((R)-3-(2,3,4-trifluorophenyl)isoxazolidine-2-yl)pyrimidine-4-yl)amino)phenyl)acrylamide] | C (500 nM ≤ GI50 < 5000 nM)
6 | C=CC(=O)Nc1cc(Nc2cc(N3OCC[C@@H]3c3cccc(F)c3)ncn2)c(OC)cc1N1CCC(N2CCN(C3CC3)CC2)CC1 [Example 64, N-(2-(4-(4-cyclopropylpiperazine-1-yl)piperidine-1-yl)-5-((6-((R)-3-(3-fluorophenyl)isoxazolidine-2-yl)pyrimidine-4-yl)amino)-4-methoxyphenyl) acrylamide] | A (GI50 < 50 nM)
7 | C=CC(=O)Nc1cc(Nc2cc(N3OCC[C@@H]3c3ccc(F)c(Cl)c3)ncn2)c(OC)cc1N1CCC(N2CCN(CC)CC2)CC1 [Example 263, N-(5-((6-((R)-3-(3-chloro-4-fluorophenyl)isoxazolidine-2-yl)pyrimidine-4-yl)amino)-2-(4-(4-ethylpiperazine-1-yl)piperidine-1-yl)-4-methoxyphenyl) acrylamide] | A (GI50 < 50 nM)
8 | C=CC(=O)Nc1cc(Nc2cc(N3OCC[C@@H]3c3cccc(Cl)c3)ncn2)c(OC)cc1N1CCC(N2CCN(C)CC2)CC1 [compound 416] | A (GI50 < 50 nM)
9 | C=CC(=O)Nc1cc(Nc2cc(N3OCC[C@@H]3c3cccc(C(F)(F)F)c3)ncn2)c(OC)cc1N1CCC(N2CCN(C3CC3)CC2)CC1 [Example 148, N-(2-(4-(4-cyclopropylpiperazine-1-yl)piperidine-1-yl)-4-methoxy-5-((6-((R)-3-(3-(trifluoromethyl)phenyl)isoxazolidine-2-yl)pyrimidine-4-yl)amino)phenyl)acrylamide] | A (GI50 < 50 nM)
10 | C=CC(=O)Nc1cc(Nc2cc(N3OCC[C@@H]3c3ccc(C)nc3)ncn2)c(OC)cc1N1CCC(N2CC[C@@H](N(C)C)C2)CC1 [Example 231, N-(2-(4-((R)-3-(dimethylamino)pyrolidine-1-yl)piperidine-1-yl)-4-methoxy-5-((6-((R)-3-(6-methylpyridine-3-yl)isoxazolidine-2-yl)pyrimidine-4-yl)amino)phenyl)acrylamide] | B (50 nM ≤ GI50 < 500 nM)
11 | C=CC(=O)Nc1cc(Nc2cc(N3OCC[C@@H]3c3cccc(Cl)c3Cl)ncn2)c(OC)cc1N1CC[C@@H](N(C)C)C1 [compound 526, N-(5-((6-((R)-3-(2,3-dichlorophenyl)isoxazolidine-2-yl)pyrimidine-4-yl)amino)-2-((R)-3-(dimethylamino)pyrolidine-1-yl)-4-methoxyphenyl) acrylamide] | A (GI50 < 50 nM)
12 | C=CC(=O)Nc1cc(Nc2cc(N3OCC[C@@H]3c3ccccc3)ncn2)c(OC)cc1N1CCC(N2CC3CC2CN3C)CC1 (stereo partly drawn) [Example 52, N-(4-methoxy-2-(4-(5-methyl-2,5-diazabicyclo [2.2.1]heptane-2-yl)piperidine-1-yl)-5-((6-((R)-3-phenylisoxazolidine-2-yl)pyrimidine-1-yl)amino)phenyl) acrylamide] | A (GI50 < 50 nM)
13 | C=CC(=O)Nc1cc(Nc2cc(N3OCC[C@@H]3c3cc(F)cc(Cl)c3)ncn2)c(OC)cc1N1CCC(N2C[C@H]3CCN(C)[C@H]3C2)CC1 [compound 539, N-(5-((6-((R)-3-(3-chloro-5-fluorophenyl)isoxazolidine-2-yl)pyrimidine-4-yl)amino)-4-methoxy-2-(4-((3aR,6aR)-1-methylhexahydropyrrolo [3,4-b]pyrrole-5(1H)-yl)piperidine-1-yl)phenyl)acrylamide] | A (GI50 < 50 nM)
14 | C=CC(=O)Nc1cc(Nc2cc(N3OCC[C@@H]3c3cccc(Cl)c3F)ncn2)c(OC)cc1N1CCC(N2CCN(CC3CC3)CC2)CC1 [Example 96, N-(5-((6-((R)-3-(3-chloro-2-fluorophenyl)isoxazolidine-2-yl)pyrimidine-4-yl)amino)-2-(4-(4-(cyclopropylmethyl)piperazine-1-yl)piperidine-1-yl)-4-methoxyphenyl) acrylamide] | A (GI50 < 50 nM)
15 | C=CC(=O)Nc1cc(Nc2cc(N3OCC[C@@H]3c3cc(F)cc(F)c3)ncn2)c(OC)cc1N1CCO[C@H](C)C1 [compound 338, N-(5-((6-((R)-3-(3,5-difluorophenyl)isoxazolidine-2-yl)pyrimidine-4-yl)amino)-4-methoxy-2-((R)-2-methylmorpholino)phenyl)acrylamide] | B (50 nM ≤ GI50 < 500 nM)
16 | C=CC(=O)Nc1cc(Nc2cc(N3OCC[C@@H]3c3cc(F)ccc3F)ncn2)c(OC)cc1N1C[C@H]2C[C@@H]1CO2 [compound 328, N-(2-((1R,4R)-2-oxa-5-azabicyclo[2.2.1]heptane-5-yl)-5-((6-((R)-3-(2,5-difluorophenyl)isoxazolidine-2-yl)pyrimidine-4-yl)amino)-4-methoxyphenyl) acrylamide] | A (GI50 < 50 nM)

Further lines, results first:

Row | Ba/F3 (NPH) Activity | SMILES
17 | A (GI50 < 50 nM) | C=CC(=O)Nc1cc(Nc2cc(N3OCC[C@@H]3c3cc(F)cc(F)c3)ncn2)c(OC)cc1N1CCN(C)C[C@H]1C [compound 918, N-(5-((6-((R)-3-(3,5-difluorophenyl)isoxazolidine-2-yl)pyrimidine-4-yl)amino)-2-((R)-2,4-dimethylpiperazine-1-yl)-4-methoxyphenyl) acrylamide]
18 | A (GI50 < 50 nM) | C=CC(=O)Nc1cc(Nc2cc(N3OCC[C@@H]3c3cc(F)cc(F)c3)ncn2)c(OC)cc1N1CCC(N2CCN(C(C)CC)CC2)CC1 (stereo partly drawn) [compound 894, N-(2-(4-(4-(sec-butyl)piperazine-1-yl)piperidine-1-yl)-5-((6-((R)-3-(3,5-difluorophenyl)isoxazolidine-2-yl)pyrimidine-4-yl)amino)-4-methoxyphenyl) acrylamide]
19 | A (GI50 < 50 nM) | C=CC(=O)Nc1cc(Nc2cc(N3OCC[C@@H]3Cc3cccc(Cl)c3OC)ncn2)c(OC)cc1N1CCC(N2C[C@H]3C[C@@H]2CO3)CC1 [compound 1055, N-(2-(4-((1R,4R)-2-oxa-5-azabicyclo [2.2.1]heptane-5-yl)piperidine-1-yl)-5-((6-((S)-3-(3-chloro-2-methoxybenzyl)isoxazolidine-2-yl)pyrimidine-4-yl)amino)-4-methoxyphenyl) acrylamide]
20 | A (GI50 < 50 nM) | C=CC(=O)Nc1cc(Nc2cc(N3OCC[C@@H]3c3cc(F)cc(F)c3)ncn2)c(OC)cc1N1CCC(N2CC[C@@H](CN(C)C)C2)CC1 [compound 626, N-(5-((6-((R)-3-(3,5-difluorophenyl)isoxazolidine-2-yl)pyrimidine-4-yl)amino)-2-(4-((S)-3-((dimethylamino)methyl)pyrolidine-1-yl)piperidine-1-yl)-4-methoxyphenyl) acrylamide]
21 | A (GI50 < 50 nM) | C=CC(=O)Nc1cc(Nc2cc(N3OCC[C@@H]3c3cccc(F)c3)ncn2)c(OC)cc1N1CCN(C2COC2)CC1 [compound 792, N-(5-((6-((R)-3-(3-fluorophenyl)isoxazolidine-2-yl)pyrimidine-4-yl)amino)-4-methoxy-2-(4-(oxetane-3-yl)piperazine-1-yl)phenyl) acrylamide]
22 | C (500 nM ≤ GI50 < 5000 nM) | C=CC(=O)Nc1cc(Nc2cc(N3OCC[C@@H]3c3ccc(F)c(F)c3F)ncn2)c(OC)cc1N1CC[C@@H](N2CCOCC2)C1 [compound 623, N-(4-methoxy-2-((R)-3-morpholinopyrolidine-1-yl)-5-((6-((R)-3-(2,3,4-trifluorophenyl)isoxazolidine-2-yl)pyrimidine-4-yl)amino)phenyl)acrylamide]
23 | A (GI50 < 50 nM) | C=CC(=O)Nc1cc(Nc2cc(N3OCC[C@@H]3Cc3cccc(Cl)c3Cl)ncn2)c(OC)cc1N1CCC(N2CCN(C3CC3)CC2)CC1 [compound 1009, N-(2-(4-(4-cyclopropylpiperazine-1-yl)piperidine-1-yl)-5-((6-((S)-3-(2,3-dichlorobenzyl)isoxazolidine-2-yl)pyrimidine-4-yl)amino)-4-methoxyphenyl) acrylamide]
